Patent US20230293519A1, “INTEGRIN INHIBITORS AND USES THEREOF IN COMBINATION WITH OTHER AGENTS” (Pliant Therapeutics, Inc., priority 2021, published 2023)

Assays:
[1] = tested on: pSMAD2:SMAD2 ratio; experiment: pSMAD2:SMAD2 ratio in BAL of healthy human subjects; type: in vivo; conditions: subjects with Cmax above 700 ng/mL; Day 7 vs baseline (Day -1)
Protocol: In order to evaluate the change of pSMAD2 as a biomarker of TGF-β activity following administration of an integrin inhibitor, and to determine a therapeutically effective dosage and an effective blood plasma Cmax of the integrin inhibitor, healthy subjects were administered compound 5, a dual selective αvβ6/avβ1-integrin inhibitor, and the corresponding Cmax levels and decrease in phosphorylation levels and were determined.
Healthy non-smoking adult males without history of lung disease were selected as subjects and were randomized into 4 cohorts. Broncoalevaolar lavage samples were obtained from all subjects 1 day prior to start of treatment. Cohorts 1 and 2 were administered 20 mg of a compound daily, wherein 3 subjects were administered the dual selective αvβ6/αvβ1-integrin inhibitor (compound 5) per every 1 subject receiving a placebo compound. Cohorts 3 and 4 were administered 40 mg of a compound daily, wherein 3 subjects were administered the dual selective αvβ6/αvβ1- integrin inhibitor (compound 5) per every 1 subject receiving a placebo compound. BAL samples and blood samples were taken from all subjects on Day -1 (baseline) and on Day 7 (end of treatment).

[2] = tested on: fibrosis-related gene expression in explanted human lung tissue from patients with idiopathic pulmonary fibrosis; experiment: nCounter Fibrosis Panel gene expression in precision cut lung slices from IPF explants; type: cell-based; conditions: IPF PCLS, 7 days, vs DMSO
From the text: Fibrosis-related gene expression in explanted human lung tissue from patients with idiopathic pulmonary fibrosis was examined in order to determine what impact combining Compound 5 treatment with standard-of-care drugs nintedanib or pirfenidone, has on the expression of such genes.
Samples used for this analysis are a subset (n = 4 of 7) of the lungs previously reported on in Decaris et al., Respir Res (2021) 22:265 (FIGS. 6 A and B). Briefly, tissue samples from patients with IPF were acquired at the time of lung transplantation. Precision cut lung slices were generated from the explants and cultured for 7 days in the presence of inhibitors (Compound 5, nintedanib, pirfenidone) at clinically relevant concentrations or vehicle (DMSO). Treated slices were lysed in mRNA-compatible buffer for gene expression analysis. For this study, the lysate from n = 6 slices per treatment per lung were pooled for analysis using the nCounter Fibrosis Panel (Nanostring) on the nCounter Max analyzer (Nanostring). This commercially available panel of 770 genes includes genes related to initial tissue damage response, chronic inflammation, proliferation of pro-fibrotic cells, and tissue modification leading to fibrotic disease. Technical quality control and normalization of raw Nanostring mRNA count data was performed using an R framework developed by Bhattacharya et al. (Bhattacharya A. et al., Brief Bioinform. 2021 May 20;22(3):bbaa163). The R packages limma (see URL www.bioconductor.org/packages/release/bioc/html/limma.html) and voom (Law, C.W. et al., Genome Biol. 2014 Feb 3;15(2):R29) were used to detect differentially expressed genes. Benjamini-Hochberg False Discovery Rate (FDR = 5%) was used to adjust p-values for multiple comparisons.

## COCCN(CCCCc1ccc2c(n1)NCCC2)CC[C@H](Nc1ncnc2ccccc12)C(=O)O [Compound 5, (S)-4-((2-methoxyethyl)(4-(5,6,7,8-tetrahydro-1,8-naphthyridin-2-yl)butyl)amino)-2-(quinazolin-4-ylamino)butanoic acid]
[1]
  reduction in pSMAD2:SMAD2 ratio in BAL: ≥ 50%
[2]
  % Reduction of APOC2 expression: -1.20%
  % Reduction of CDH2 expression: 23.87%
  % Reduction of COL1A1 expression: 38.78%
  % Reduction of COL4A2 expression: 17.74%
  % Reduction of COL5A3 expression: 30.59%
  % Reduction of FAP expression: 37.30%
  % Reduction of FCGR3A/B expression: 28.54%
  % Reduction of ITGAS expression: 26.20%
  % Reduction of ITGB3 expression: -2.48%
  % Reduction of LOX expression: 39.38%
  % Reduction of LOXL2 expression: 15.32%
  % Reduction of NID1 expression: 19.25%
  % Reduction of PDGFRB expression: 37.29%
  % Reduction of POSTN expression: 48.61%
  % Reduction of SERPINE1 expression: 35.77%
  % Reduction of SERPINH1 expression: 22.68%
  % Reduction of SPP1 expression: -15.73%
  % Reduction of TGFB1 expression: 1.68%
  % Reduction of THBS2 expression: 31.47%
  logFC of ALDH7A1 expression: 0.57
  logFC of APOA2 expression: 0.6135
  logFC of CCL13 expression: 0.9445
  logFC of CD19 expression: 0.5301
  logFC of CIITA expression: 0.5895
  logFC of COL1A2 expression: -0.8062
  logFC of COL3A1 expression: -0.7449
  logFC of COL5A1 expression: -0.9282
  logFC of COL6A3 expression: -0.8313
  logFC of COL10A1 expression: -2.782
  logFC of CXCL2 expression: 0.7069
  logFC of CXCR4 expression: -0.7822
  logFC of FAP expression: -0.6735
  logFC of FN1 expression: -0.662
  logFC of FZD5 expression: 0.4466
  logFC of GPC4 expression: 0.486
  logFC of GREM1 expression: -0.8269
  logFC of IFI6 expression: 0.9391
  logFC of IFI35 expression: 0.4412
  logFC of LOX expression: -0.722
  logFC of LOXL1 expression: -0.6279
  logFC of LTA expression: 0.4994
  logFC of MARCO expression: -0.9183
  logFC of MET expression: 0.6707
  logFC of MMP8 expression: -0.8754
  logFC of MMP11 expression: -0.6749
  logFC of NOS1 expression: 0.6684
  logFC of OAS1 expression: 0.6104
  logFC of PDGFRB expression: -0.6732
  logFC of PECAM1 expression: -0.8251
  logFC of PLPP4 expression: -0.6364
  logFC of POSTN expression: -0.9604
  logFC of PTGER4 expression: 0.439
  logFC of SERPINE1 expression: -0.6387
  logFC of SMAD3 expression: 0.4528
  logFC of TIMP1 expression: -0.6101
  logFC of TNF expression: 0.4803
  logFC of TTN expression: 0.5832
  logFC of WWC1 expression: 0.5885
  logFC of XAF1 expression: 0.4529
